Test results reported in patent US4073892A, “N^2 -alkoxynaphthylsulfonyl-L-argininamides and the pharmaceutically acceptable salts thereof” (Mitsubishi Chemical Industries Limited, priority 1974, dated 1978).

Biological target: T1, thrombin (Bos taurus, UniProt P00735)
T1 construct: purchased Mochida Pharmaceutical Co., Ltd
Assay: fibrinogen coagulation time (antithrombotic activity)
Type: biochemical
Details: bovine fibrinogen, thrombin solution 5 units/ml, borate saline buffer pH 7.4, 25° C; normal coagulation time 50-55 seconds
Experimental: Immediately after mixing, the reaction mixture was transferred from the ice bath to a bath maintained at 25° C. Coagulation times were taken as the period between the time of transference to the 25° C bath and the time of the first appearance of fibrin threads.
The term "concentration required to prolong the coagulation time by a factor of two" is the concentration of an active ingredient required to prolong the normal coagulation time 50-55 seconds to 100-110 seconds.

SMILES | Concentration Required to Prolong The Coagulation Time By A Factor of Two
COCCN(CC(=O)Oc1ccc2c(c1)CCC2)C(=O)[C@H](CCCNC(=N)N)NS(=O)(=O)c1ccc2cc(OC)c(OC)cc2c1 [Sample 53, N^2-(6,7-dimethoxy-2-naphthylsulfonyl)-L-arginyl-N-(2-methoxyethyl) glycine 5-indanyl ester] | 30 µM
CCOCCN(CCC(=O)O)C(=O)[C@H](CCCNC(=N)N)NS(=O)(=O)c1ccc2cc(OC)c(OC)cc2c1 [Sample 21, N^2-(6,7-dimethoxy-2-naphthylsulfonyl)-L-arginyl-N-(2-ethoxyethyl)-β-alanine] | 4 µM
COCCN(CC(=O)O)C(=O)[C@H](CCCNC(=N)N)NS(=O)(=O)c1cc(OC)c2cc(OC)ccc2c1 [Sample 23, N^2-(4,6-dimethoxy-2-naphthylsulfonyl)-L-arginyl-N-(2-methoxyethyl)glycine] | 4 µM
CCCCN(CC(=O)O)C(=O)[C@H](CCCNC(=N)N)NS(=O)(=O)c1ccc2ccc(OC)cc2c1 [Sample 39, N^2-(7-methoxy-2-naphthylsulfonyl)-L-arginyl-N-butylglycine] | 0.5 µM
CCCCCCN(CC(=O)O)C(=O)[C@H](CCCNC(=N)N)NS(=O)(=O)c1ccc2cc(OC)c(OC)cc2c1 [Sample 9, N^2-(6,7-dimethoxy-2-naphthylsulfonyl)-L-arginyl-N-hexylglycine] | 1.5 µM
CCCCN(CC(=O)O)C(=O)[C@H](CCCNC(=N)N)NS(=O)(=O)c1ccc2cc(OC)c(OC)cc2c1 [Sample 3, N^2-(6,7-dimethoxy-2-naphthylsulfonyl)-L-arginyl-N-butylglycine] | 0.3 µM
CCCC(C(=O)O)N(CC(=O)O)C(=O)[C@H](CCCNC(=N)N)NS(=O)(=O)c1ccc2cc(OC)c(OC)cc2c1 (stereo partly drawn) [Sample 54, N^2-(6,7-dimethoxy-2-naphthylsulfonyl)-L-arginyl-N-(1-carboxybutyl)glycine] | 55 µM
COCCCN(CC(=O)O)S(=O)(=O)c1ccc2cc(OC)c(OC)cc2c1 [Sample 19, N^2-(6,7-dimethoxy-2-naphthylsulfonyl)-N-(3-methoxypropyl)glycine] | 5 µM
COc1ccc2ccc(S(=O)(=O)N[C@@H](CCCNC(=N)N)C(=O)N(CC[S+](C)[O-])CC(=O)O)cc2c1 (stereo partly drawn) [Sample 57, N^2-(7-methoxy-2-naphthylsulfonyl)-L-arginyl-N-(2-methylsulfinylethyl)glycine] | 6.5 µM
CCCN(CC(=O)O)C(=O)[C@H](CCCNC(=N)N)NS(=O)(=O)c1ccc2cc(OC)c(OC)cc2c1 [Sample 1, N^2-(6,7-dimethoxy-2-naphthylsulfonyl)-L-arginyl-N-propylglycine] | 8 µM
COCCN(CC(=O)O)C(=O)[C@H](CCCNC(=N)N)NS(=O)(=O)c1ccc2ccc(OC)cc2c1 [Sample 35, N^2-(7-methoxy-2-naphthylsulfonyl)-L-arginyl-N-(2-methoxyethyl)glycine] | 0.5 µM
COCCN(CCC(=O)O)C(=O)[C@H](CCCNC(=N)N)NS(=O)(=O)c1ccc2cc(OC)c(OC)cc2c1 [Sample 15, N^2-(6,7-dimethoxy-2-naphthylsulfonyl)-L-arginyl-N-(2-methoxyehtyl)-β-alanine] | 2.5 µM
COc1cc2ccc(S(=O)(=O)N[C@@H](CCCNC(=N)N)C(=O)N(CC(=O)O)CC(C)OC)cc2cc1OC (stereo partly drawn) [Sample 55, N^2-(6,7-dimethoxy-2-naphthylsulfonyl)-L-arginyl-N-(2-methoxypropyl)glycine] | 6.5 µM
COCCN(CC(=O)O)C(=O)[C@H](CCCNC(=N)N)NS(=O)(=O)c1ccc2cc(OC)c(OC)cc2c1 [Sample 13, N^2-(6,7-dimethoxy-2-naphthylsulfonyl)-L-arginyl-N-(2-methoxyethyl)glycine] | 0.5 µM
CCCCN(CC(=O)O)C(=O)[C@H](CCCNC(=N)N)NS(=O)(=O)c1ccc2cc(OC)ccc2c1 [Sample 31, N^2-(6-methoxy-2-naphthylsulfonyl)-L-arginyl-N-butylglycine] | 0.5 µM

Next, values leading:

Concentration Required to Prolong The Coagulation Time By A Factor of Two | SMILES
2 µM | COc1cc2ccc(S(=O)(=O)N[C@@H](CCCNC(=N)N)C(=O)N(CC(=O)O)CC(C)C)cc2cc1OC [Sample 5, N^2-(6,7-dimethoxy-2-naphthylsulfonyl)-L-arginyl-N-isobutylglycine]
20 µM | COCCN(CC(=O)Oc1cccc(C)c1)C(=O)[C@H](CCCNC(=N)N)NS(=O)(=O)c1ccc2cc(OC)c(OC)cc2c1 [Sample 52, N^2-(6,7-dimethoxy-2-naphthylsulfonyl)-L-arginyl-N-(2-methoxyethyl) glycine m-tolyl ester]
6.5 µM | CCOC(=O)CCN(CC(=O)O)C(=O)[C@H](CCCNC(=N)N)NS(=O)(=O)c1ccc2cc(OC)c(OC)cc2c1 [Sample 49, N^2-(6,7-dimethoxy-2-naphthylsulfonyl)-L-arginyl-N-(2-ethoxycarbonylethyl)glycine]
1.5 µM | CCOC(=O)CN(CCOC)C(=O)[C@H](CCCNC(=N)N)NS(=O)(=O)c1ccc2cc(OC)c(OC)cc2c1 [Sample 14, N^2-(6,7-dimethoxy-2-naphthylsulfonyl)-L-arginyl-N-(2-methoxyethyl)glycine ethyl ester]
15 µM | CCOc1cc2ccc(S(=O)(=O)N[C@@H](CCCNC(=N)N)C(=O)N(CCOC)CC(=O)O)cc2cc1OCC [Sample 27, N^2-(6,7-diethoxy-2-naphthylsulfonyl)-L-arginyl-N-(2-methoxyethyl) glycine]
2.5 µM | COCCN(CC(=O)O)C(=O)[C@H](CCCNC(=N)N)NS(=O)(=O)c1cccc2c(OC)cccc12 [Sample 43, N^2-(5-methoxy-1-naphthylsulfonyl)-L-arginyl-N-(2-methoxyethyl) glycine]
5 µM | CCCCCN(CC(=O)O)C(=O)[C@H](CCCNC(=N)N)NS(=O)(=O)c1ccc2cc(OC)c(OC)cc2c1 [Sample 7, N^2-(6,7-dimethoxy-2-naphthylsulfonyl)-L-arginyl-N-pentylglycine]
2 µM | CCCCCCCCOC(=O)CN(CCOC)C(=O)[C@H](CCCNC(=N)N)NS(=O)(=O)c1ccc2cc(OC)c(OC)cc2c1 [Sample 50, N^2-(6,7-dimethoxy-2-naphthylsulfonyl)-L-arginyl-N-(2-methoxyethyl)glycine octyl ester]
2 µM | CCCCN(CC(=O)O)C(=O)[C@H](CCCNC(=N)N)NS(=O)(=O)c1cc(OC)c2cc(OC)ccc2c1 [Sample 25, N^2-(4,6-dimethoxy-2-naphthylsulfonyl)-L-arginyl-N-butylglycine]
2.5 µM | COCCN(CCCC(=O)O)C(=O)[C@H](CCCNC(=N)N)NS(=O)(=O)c1ccc2cc(OC)c(OC)cc2c1 [Sample 17, N^2-(6,7-dimethoxy-2-naphthylsulfonyl)-N-(2-methoxyethyl)-N-(3-carboxypropyl)-L-argininamide]

Tested on: mice (male, 20 g)
Assay: acute toxicity (LD50), intraperitoneal administration in mice
Type: in vivo
Details: not given
From the text: Representative LD50 values, for example, for N^2 -(6, 7-dimethoxy-2-naphthylsulfonyl)-L-arginyl-N-(2-methoxyethyl)glycine, N^2 -(6, 7-dimethoxy-2-naphthylsulfonyl)-L-arginyl-N-(2-ethoxyethyl)-β-alanine, N^2 -(4, 6-dimethoxy-2-naphthylsulfonyl)-L-arginyl-N-(2-methoxyethyl)glycine, N^2 -(7-methoxy-2-naphthylsulfonyl)-L-arginyl-N-(2-methoxyethyl)glycine are 1,900-2,400, 660-1,000, 660-1,000, 2,000 milligrams per kilogram, respectively.

SMILES | acute toxicity value (LD50)
CCOCCN(CCC(=O)O)C(=O)[C@H](CCCNC(=N)N)NS(=O)(=O)c1ccc2cc(OC)c(OC)cc2c1 [Sample 21, N^2-(6,7-dimethoxy-2-naphthylsulfonyl)-L-arginyl-N-(2-ethoxyethyl)-β-alanine] | 660-1,000 milligrams per kilogram
COCCN(CC(=O)O)C(=O)[C@H](CCCNC(=N)N)NS(=O)(=O)c1cc(OC)c2cc(OC)ccc2c1 [Sample 23, N^2-(4,6-dimethoxy-2-naphthylsulfonyl)-L-arginyl-N-(2-methoxyethyl)glycine] | 660-1,000 milligrams per kilogram
COCCN(CC(=O)O)C(=O)[C@H](CCCNC(=N)N)NS(=O)(=O)c1ccc2ccc(OC)cc2c1 [Sample 35, N^2-(7-methoxy-2-naphthylsulfonyl)-L-arginyl-N-(2-methoxyethyl)glycine] | 2,000 milligrams per kilogram
COCCN(CC(=O)O)C(=O)[C@H](CCCNC(=N)N)NS(=O)(=O)c1ccc2cc(OC)c(OC)cc2c1 [Sample 13, N^2-(6,7-dimethoxy-2-naphthylsulfonyl)-L-arginyl-N-(2-methoxyethyl)glycine] | 1,900-2,400 milligrams per kilogram
